Assays:
[1] = Liquid; for mass density: 293.15 K, 101.33 kPa, Vibrating tube method
[2] = refractive index (Na D-line) (dimensionless); conditions: 293.15 K; 101.33 kPa; Liquid; Standard Abbe refractometry

C=C(C)OCC [2-ethoxy-1-propene]
Conditions | mass density [kg/m3] | refractive index
[1] | 771.2 | –
[2] | – | 1.3913

[1], Ebulliometric method (Recirculating still)
Conditions | vapor or sublimation pressure [kPa]
320.98 K | 62.74
322.13 K | 65.19
322.7 K | 66.66
323.15 K | 67.84
323.47 K | 68.4
324.5 K | 70.65
325.43 K | 72.69
326.52 K | 75.47
327.43 K | 77.89
327.69 K | 79.99
328.26 K | 80.16
329.39 K | 83.21
329.89 K | 85.35
329.96 K | 86.66
331.07 K | 88.17
331.1 K | 89.99
331.48 K | 90.62
332.88 K | 93.41
333.15 K | 95.98
333.68 K | 96.12
334.46 K | 98.47
334.57 K | 99.82
334.67 K | 99.99

CC(C)=O [acetone]
Conditions | mass density [kg/m3] | refractive index
[1] | 784.5 | –
[2] | – | 1.359

[1]
Conditions | vapor or sublimation pressure [kPa]
317.58 K | 66.66
322.68 K | 79.99
323.15 K | 81.39
324.94 K | 86.66
328.98 K | 99.99

CCC(C)=O [butanone]
Conditions | mass density [kg/m3] | refractive index
[1] | 799.8 | –
[2] | – | 1.3765

[1]
Conditions | vapor or sublimation pressure [kPa]
333.15 K | 51.89
340.17 K | 66.66
345.51 K | 79.99
349.12 K | 89.99
352.3 K | 99.99
